According to article PMC11395219 (Molecular Cancer, 2024):

Molecular target: T1, Vitamin D receptor (VDR) (Homo sapiens, UniProt P11473)
T1 sequence (P11473 118-427 limits assumed): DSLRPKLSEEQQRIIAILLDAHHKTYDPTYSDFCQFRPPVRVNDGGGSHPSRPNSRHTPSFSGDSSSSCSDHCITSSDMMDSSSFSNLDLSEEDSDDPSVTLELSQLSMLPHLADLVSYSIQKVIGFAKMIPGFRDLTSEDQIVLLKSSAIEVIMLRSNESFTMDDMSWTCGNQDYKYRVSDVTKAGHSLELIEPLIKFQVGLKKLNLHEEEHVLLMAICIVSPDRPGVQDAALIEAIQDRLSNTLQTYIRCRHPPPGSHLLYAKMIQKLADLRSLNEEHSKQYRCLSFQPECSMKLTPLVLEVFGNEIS
Assay: SPR
Type: binding

**Q.** With `O=c1cc(-c2ccc(O)cc2)oc2c([C@@H]3O[C@H](CO)[C@@H](O)[C@H](O)[C@H]3O)c(O)cc(O)c12` [vitexin] as the molecule, how does the Kd read?
**A.** Its Kd is 34.7 µM.
